Measurements published in the NIST ThermoML archive (doi:10.1021/je500380x).
± gives the expanded uncertainty stated by the source.

Assay: mn = molality of the nth substance listed, in mol/kg
Details: 100 kPa, Liquid; for viscosity: Falling or rolling sphere viscometry; for mass density: Vibrating tube method; for electrical conductivity: Alternating current cell with electrodes

CCC(=O)OCCN1CCNCC1 [2-(piperazin-1-yl)ethyl propionate] + O
Details | electrical conductivity [S/m] | mass density [kg/m3] | viscosity [mPa·s]
308.15 K, m1 = 0.05 | – | 995.91 ± 0.11 | –
308.15 K, m1 = 0.0999 | – | 997.73 ± 0.11 | –
308.15 K, m1 = 0.1996 | – | 1001.37 ± 0.11 | –
308.15 K, m1 = 0.3 | – | 1005.16 ± 0.11 | –
308.15 K, m1 = 0.3997 | – | 1008.83 ± 0.11 | –
308.15 K, m1 = 0.5001 | – | 1012.54 ± 0.11 | –
308.15 K, m1 = 0.5992 | – | 1016.24 ± 0.11 | –
308.15 K, m1 = 0.6993 | – | 1019.8 ± 0.11 | –
308.15 K, m1 = 0.7997 | – | 1023.89 ± 0.11 | –
308.15 K, m1 = 0.9003 | – | 1027.51 ± 0.11 | –
308.15 K, m1 = 0.9988 | – | 1031.34 ± 0.11 | 1.524 ± 0.019
308.15 K, m1 = 1.199 | – | 1038.89 ± 0.11 | 1.83 ± 0.023
308.15 K, m1 = 1.402 | – | 1046.51 ± 0.11 | 2.203 ± 0.027
308.15 K, m1 = 1.6 | – | 1053.82 ± 0.12 | 2.745 ± 0.034
308.15 K, m1 = 1.802 | – | 1061.17 ± 0.12 | 3.361 ± 0.041
308.15 K, m1 = 1.998 | – | 1068.11 ± 0.12 | 4.23 ± 0.052
308.15 K, m1 = 2.2 | – | 1074.9 ± 0.12 | 5.468 ± 0.067
308.15 K, m1 = 2.402 | – | 1081.54 ± 0.12 | 7.079 ± 0.087
308.15 K, m1 = 2.6 | – | 1087.28 ± 0.12 | 10.12 ± 0.12
308.15 K, m1 = 2.798 | – | 1092.61 ± 0.12 | 13.61 ± 0.17
308.15 K, m1 = 3.002 | – | 1097.53 ± 0.13 | 18.37 ± 0.23
313.15 K, m1 = 0.05 | 0.359 ± 0.004 | 994.07 ± 0.11 | 0.687 ± 0.009
313.15 K, m1 = 0.0999 | 0.651 ± 0.007 | 995.89 ± 0.11 | 0.714 ± 0.009
313.15 K, m1 = 0.1996 | 1.143 ± 0.011 | 999.5 ± 0.11 | 0.763 ± 0.009
313.15 K, m1 = 0.3 | 1.56 ± 0.016 | 1003.25 ± 0.11 | 0.806 ± 0.01
313.15 K, m1 = 0.3997 | 1.903 ± 0.019 | 1006.85 ± 0.11 | 0.861 ± 0.011
313.15 K, m1 = 0.5001 | 2.18 ± 0.02 | 1010.55 ± 0.11 | 0.928 ± 0.011
313.15 K, m1 = 0.5992 | 2.43 ± 0.02 | 1014.22 ± 0.11 | 0.994 ± 0.012
313.15 K, m1 = 0.6993 | 2.62 ± 0.03 | 1017.89 ± 0.11 | 1.069 ± 0.013
313.15 K, m1 = 0.7997 | 2.77 ± 0.03 | 1021.76 ± 0.11 | 1.159 ± 0.014
313.15 K, m1 = 0.9003 | 2.88 ± 0.03 | 1025.33 ± 0.11 | 1.258 ± 0.016
313.15 K, m1 = 0.9988 | 2.96 ± 0.03 | 1029.11 ± 0.11 | 1.361 ± 0.017
313.15 K, m1 = 1.199 | 3.02 ± 0.03 | 1036.57 ± 0.11 | 1.623 ± 0.02
313.15 K, m1 = 1.402 | 2.99 ± 0.03 | 1044.07 ± 0.11 | 1.944 ± 0.024
313.15 K, m1 = 1.6 | 2.84 ± 0.03 | 1051.27 ± 0.12 | 2.407 ± 0.03
313.15 K, m1 = 1.802 | 2.65 ± 0.03 | 1058.51 ± 0.12 | 2.925 ± 0.036
313.15 K, m1 = 1.998 | 2.4 ± 0.02 | 1065.33 ± 0.12 | 3.651 ± 0.045
313.15 K, m1 = 2.2 | 2.13 ± 0.02 | 1072.02 ± 0.12 | 4.68 ± 0.058
313.15 K, m1 = 2.402 | 1.843 ± 0.018 | 1078.58 ± 0.12 | 6.032 ± 0.074
313.15 K, m1 = 2.6 | 1.53 ± 0.015 | 1084.23 ± 0.12 | 8.455 ± 0.1
313.15 K, m1 = 2.798 | 1.215 ± 0.012 | 1089.49 ± 0.12 | 11.32 ± 0.14
313.15 K, m1 = 3.002 | 0.987 ± 0.01 | 1094.34 ± 0.13 | 15.06 ± 0.19
318.15 K, m1 = 0.05 | 0.392 ± 0.004 | 992.04 ± 0.11 | 0.632 ± 0.008
318.15 K, m1 = 0.0999 | 0.711 ± 0.007 | 993.83 ± 0.11 | 0.658 ± 0.008
318.15 K, m1 = 0.1996 | 1.25 ± 0.013 | 997.43 ± 0.11 | 0.7 ± 0.009
318.15 K, m1 = 0.3 | 1.707 ± 0.017 | 1001.16 ± 0.11 | 0.737 ± 0.009
318.15 K, m1 = 0.3997 | 2.08 ± 0.02 | 1004.61 ± 0.11 | 0.785 ± 0.01
318.15 K, m1 = 0.5001 | 2.39 ± 0.02 | 1008.39 ± 0.11 | 0.844 ± 0.01
318.15 K, m1 = 0.5992 | 2.66 ± 0.03 | 1012.05 ± 0.11 | 0.902 ± 0.011
318.15 K, m1 = 0.6993 | 2.86 ± 0.03 | 1015.67 ± 0.11 | 0.969 ± 0.012
318.15 K, m1 = 0.7997 | 3.04 ± 0.03 | 1019.49 ± 0.11 | 1.048 ± 0.013
318.15 K, m1 = 0.9003 | 3.17 ± 0.03 | 1023 ± 0.11 | 1.133 ± 0.014
318.15 K, m1 = 0.9988 | 3.26 ± 0.03 | 1026.75 ± 0.11 | 1.222 ± 0.015
318.15 K, m1 = 1.199 | 3.34 ± 0.03 | 1034.11 ± 0.11 | 1.452 ± 0.018
318.15 K, m1 = 1.402 | 3.31 ± 0.03 | 1041.51 ± 0.11 | 1.729 ± 0.021
318.15 K, m1 = 1.6 | 3.19 ± 0.03 | 1048.62 ± 0.12 | 2.122 ± 0.026
318.15 K, m1 = 1.802 | 2.96 ± 0.03 | 1055.75 ± 0.12 | 2.566 ± 0.032
318.15 K, m1 = 1.998 | 2.7 ± 0.03 | 1062.48 ± 0.12 | 3.183 ± 0.039
318.15 K, m1 = 2.2 | 2.4 ± 0.02 | 1069.07 ± 0.12 | 4.044 ± 0.05
318.15 K, m1 = 2.402 | 2.11 ± 0.02 | 1075.55 ± 0.12 | 5.196 ± 0.064
318.15 K, m1 = 2.6 | 1.77 ± 0.018 | 1081.13 ± 0.12 | 7.174 ± 0.088
318.15 K, m1 = 2.798 | 1.411 ± 0.014 | 1086.33 ± 0.12 | 9.493 ± 0.12
318.15 K, m1 = 3.002 | 1.17 ± 0.012 | 1091.09 ± 0.12 | 12.49 ± 0.15
323.15 K, m1 = 0.05 | 0.426 ± 0.005 | 989.83 ± 0.11 | 0.587 ± 0.007
323.15 K, m1 = 0.0999 | 0.772 ± 0.008 | 991.62 ± 0.11 | 0.61 ± 0.008
323.15 K, m1 = 0.1996 | 1.36 ± 0.014 | 995.19 ± 0.11 | 0.645 ± 0.008
323.15 K, m1 = 0.3 | 1.85 ± 0.019 | 998.9 ± 0.11 | 0.678 ± 0.008
323.15 K, m1 = 0.3997 | 2.27 ± 0.02 | 1002.44 ± 0.11 | 0.722 ± 0.009
323.15 K, m1 = 0.5001 | 2.61 ± 0.03 | 1006.07 ± 0.11 | 0.773 ± 0.01
323.15 K, m1 = 0.5992 | 2.92 ± 0.03 | 1009.7 ± 0.11 | 0.825 ± 0.01
323.15 K, m1 = 0.6993 | 3.14 ± 0.03 | 1013.4 ± 0.11 | 0.883 ± 0.011
323.15 K, m1 = 0.7997 | 3.34 ± 0.03 | 1017.08 ± 0.11 | 0.953 ± 0.012
323.15 K, m1 = 0.9003 | 3.48 ± 0.04 | 1020.5 ± 0.11 | 1.028 ± 0.013
323.15 K, m1 = 0.9988 | 3.59 ± 0.04 | 1024.22 ± 0.11 | 1.106 ± 0.014
323.15 K, m1 = 1.199 | 3.69 ± 0.04 | 1031.52 ± 0.11 | 1.307 ± 0.016
323.15 K, m1 = 1.402 | 3.64 ± 0.04 | 1038.79 ± 0.11 | 1.549 ± 0.019
323.15 K, m1 = 1.6 | 3.52 ± 0.04 | 1045.84 ± 0.11 | 1.895 ± 0.023
323.15 K, m1 = 1.802 | 3.28 ± 0.03 | 1052.89 ± 0.12 | 2.274 ± 0.028
323.15 K, m1 = 1.998 | 3 ± 0.03 | 1059.54 ± 0.12 | 2.797 ± 0.034
323.15 K, m1 = 2.2 | 2.69 ± 0.03 | 1066.05 ± 0.12 | 3.527 ± 0.043
323.15 K, m1 = 2.402 | 2.38 ± 0.02 | 1072.45 ± 0.12 | 4.525 ± 0.056
323.15 K, m1 = 2.6 | 2.01 ± 0.02 | 1077.96 ± 0.12 | 6.112 ± 0.075
323.15 K, m1 = 2.798 | 1.628 ± 0.016 | 1083.11 ± 0.12 | 8.069 ± 0.099
323.15 K, m1 = 3.002 | 1.341 ± 0.013 | 1087.78 ± 0.12 | 10.49 ± 0.13
